Measured values: patent US10300052B2, “Methods for increasing CFTR activity” (THE UAB RESEARCH FOUNDATION, priority 2012, dated 2019)
Entries after “also recorded” stand apart in the source; their conditions may differ.

Tests used:
G551D-CFTR = G551D-CFTR (Homo sapiens, UniProt P13569, G551D); set-up: host or cells: CF patients carrying G551D-CFTR (endogenous protein); settings: CF patients with G551D-CFTR; reported; cited from earlier work
HBE cells [1] = test: μOCT imaging of airway epithelial function in HBE cells containing WT-CFTR; format: cell-based, human
Protocol: ASL depth is shown as red bar. White scale bar=10 μm.
FIGS. 4A-4D show the effects of CFTR activators on airway epithelial function in human bronchial epithelial cells by μOCT. Control HBE cells containing a defective CFTR (designated control, CF) and HBE cells containing a WT-CFTR (designated control and VX-770, wild-type) received vehicle alone (control; 0.2% DMSO) or ivacaftor (10 μM). FIGS. 4A-4D show ASL depth (FIG. 4A), PCL depth (FIG. 4B), cilia beat frequency (FIG. 4C), and mucociliary transport (MCT) rate (FIG. 4D) as quantified from μOCT images.
FIGS. 5A-5D show the effects of CFTR activators on airway epithelial function in human bronchial epithelial cells by μOCT. […] CSE was applied apically and ivacaftor basolaterally. Cells were exposed to each condition for 24 hrs. ASL depth is shown as a dark bar. White scale bar=10 μm. FIGS. 5B-5D show ASL depth (FIG. 5B), cilia beat frequency (FIG. 5C), and mucociliary transport (MCT) rate (FIG. 5D) as quantified from μOCT images. Data are derived from 5 measures per well, and 3 wells per condition.
The effect of CFTR activators was evaluated using μOCT imaging in HBE cells (FIGS. 4A-4D). […] Mucus and the PCL layer that together comprise the airway surface liquid (ASL) layer can also be clearly visualized. As shown in FIGS. 4A-4D, from top to bottom, the air has no μOCT signal, while the mucus layer appears heterogeneous with high μOCT signal intensity. The PCL gel has a low μCT signal intensity compared with the mucus and monolayer and includes ciliary structures. The air-liquid interface, mucus-PCL interface, and apical cell surface are clearly defined so that ASL and PCL heights can be directly measured with submicrometer resolution. In addition to the different layers, cilia tips can be readily detected by μOCT, as they are brighter than the surrounding PCL and mucus. The tips maintain contact with the deep surface of mucus blanket and lift the mucus nearby by a few hundred nanometers during the effective stroke.
The results in this example, illustrated in FIGS. 4A-4D, confirm the results shown above that CFTR activators increase the activity of WT-CFTR. In FIGS. 4A-4D, control HBE cells containing a defective CFTR (designated control, CF) were used along with HBE cells containing a WT-CFTR (designated control and VX-770, wild-type). Control cells received vehicle alone (0.2% DMSO); ivacaftor was used in all cases at 10 μM. […] In terms of PCL depth, the PCL only extends approximately 7 microns (corresponding to the depth of the full length cilia); further increases are difficult to detect. For CBF, the rate of CBF may not be rate limiting in all conditions. For example, if the cilia were beating against thick mucus (caused for example by mucus overproduction or the inability to clear mucus normally), the CBF would be slower. However, in this assays the determination of CBF is made versus a normal control making meaning an increase in CBF may not be detected in all cases.
Data in FIGS. 5A-5D are derived from 5 measurements per well, with three wells per condition. In FIGS. 5A-5D, all cells contained WT-CFTR; control cells received DMSO vehicle ([…]), CSE indicates cells received 2% CSE extract administered apically; CSE indicates cells received 2% CSE extract administered apically and 10 μM ivacaftor administered basolaterally; VX-770 indicates cells received 10 μM ivacaftor administered basolaterally. All data were derived from μOCT images as described herein.
The μOCT system is a spectral-domain OCT implementation with several improvements to standard OCT that yield high resolution in both lateral and axial directions. The general layout and axial resolution characterization have been described (Liu et al., PLOSOne, 8(1), E54473-2013). A super-continuum source (Fianium SC450) provides the high-bandwidth, short coherence length light necessary for high axial resolution ([…]). […]

HBE cells [2] = test: Airway surface liquid (ASL) depth measurement by confocal microscopy in HBE monolayers; format: cell-based, human; settings: ivacaftor 10 μM basolateral, 24 h, confocal (FIGS. 2A, 2B)
Protocol: White scale bars designate 10 μm.
Dotted line indicates ASL depth of a panel of CF HBE cells using the exact same method.
The apical surfaces of HBE cells were washed three times and then test compounds added to the basolateral compartment 24 h prior to labeling. Cells were stained with CMFDA (100 μM) in the cell culture medium for 1 hr. Texas red dye (25 μl at 2 mg/ml in Fc70) was added apically and cells allowed to equilibrate 2 h at 37° C. Transwell membranes were placed in sterile glass bottom dish coated with MEM, and imaged with a Carl Zeiss (Peabody, Mass.) confocal microscope using 20× (numerical aperture 0.88, working distance 0.55 mm) air objective lens. Cells were visualized with DIC optics to evaluate cell morphology before initiating fluorescence microscopy. Subsequently, Zscan confocal fluorescent microscopy images were acquired from the top of the ASL through the top of the cell surface. XZ scans were analyzed using Zen2008 software at four ROI per well each located 1 mm from the filter periphery and at each quadrant; 5 estimates of ASL depth were taken equally dispersed across each ROI (7, 9).

G551D-CFTR, sequence (P13569 whole entry G551D): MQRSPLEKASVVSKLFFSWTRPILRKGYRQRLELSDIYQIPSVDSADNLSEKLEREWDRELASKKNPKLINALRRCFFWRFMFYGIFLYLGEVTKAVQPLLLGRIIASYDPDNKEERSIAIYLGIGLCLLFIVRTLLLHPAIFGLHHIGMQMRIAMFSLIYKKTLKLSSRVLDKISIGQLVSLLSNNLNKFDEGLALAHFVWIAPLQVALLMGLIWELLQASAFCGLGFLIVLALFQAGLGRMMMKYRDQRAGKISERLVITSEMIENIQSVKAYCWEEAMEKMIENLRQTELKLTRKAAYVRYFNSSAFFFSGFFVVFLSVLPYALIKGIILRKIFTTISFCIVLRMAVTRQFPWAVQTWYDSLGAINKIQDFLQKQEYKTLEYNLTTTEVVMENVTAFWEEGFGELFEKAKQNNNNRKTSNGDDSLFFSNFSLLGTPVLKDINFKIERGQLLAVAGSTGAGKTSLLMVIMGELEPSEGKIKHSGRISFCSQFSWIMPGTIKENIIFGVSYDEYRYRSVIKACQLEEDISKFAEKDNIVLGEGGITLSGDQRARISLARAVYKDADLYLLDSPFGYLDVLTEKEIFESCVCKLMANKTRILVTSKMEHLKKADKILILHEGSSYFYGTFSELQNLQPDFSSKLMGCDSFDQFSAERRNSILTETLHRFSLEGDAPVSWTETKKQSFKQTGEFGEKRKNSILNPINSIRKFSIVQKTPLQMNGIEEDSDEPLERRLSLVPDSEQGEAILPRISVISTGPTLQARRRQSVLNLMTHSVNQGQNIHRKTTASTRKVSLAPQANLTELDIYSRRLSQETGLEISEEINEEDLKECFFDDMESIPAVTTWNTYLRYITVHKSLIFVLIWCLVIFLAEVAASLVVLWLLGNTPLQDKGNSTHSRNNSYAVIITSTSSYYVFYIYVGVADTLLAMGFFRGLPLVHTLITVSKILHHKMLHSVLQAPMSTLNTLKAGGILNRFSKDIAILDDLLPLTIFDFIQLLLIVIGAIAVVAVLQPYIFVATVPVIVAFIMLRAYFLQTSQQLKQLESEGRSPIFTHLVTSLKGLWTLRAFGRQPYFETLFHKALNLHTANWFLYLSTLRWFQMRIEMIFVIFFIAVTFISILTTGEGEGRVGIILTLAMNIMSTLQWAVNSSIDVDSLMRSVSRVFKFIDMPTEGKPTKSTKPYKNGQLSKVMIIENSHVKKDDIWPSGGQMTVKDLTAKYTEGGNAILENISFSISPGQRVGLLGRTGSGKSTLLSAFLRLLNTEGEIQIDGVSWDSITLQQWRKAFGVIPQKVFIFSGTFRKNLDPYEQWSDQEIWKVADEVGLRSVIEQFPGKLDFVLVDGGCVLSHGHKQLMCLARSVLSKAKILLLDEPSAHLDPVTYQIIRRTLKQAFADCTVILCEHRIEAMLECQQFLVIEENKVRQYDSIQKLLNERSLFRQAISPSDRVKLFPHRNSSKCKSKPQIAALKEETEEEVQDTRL

For `CC(C)(C)c1cc(C(C)(C)C)c(NC(=O)c2c[nH]c3ccccc3c2=O)cc1O` [ivacaftor], the “measures of CFTR activity” value (G551D-CFTR) is listed as “improved”, the pulmonary function (G551D-CFTR) is listed as “enhanced” and the MCT (HBE cells [1]; 2% CSE apically plus ivacaftor 10 μM basolaterally, 24 hrs (FIG. 5D)) is listed as “increased MCT to that seen in the control cells”. For the same compound, the ASL depth (HBE cells [1]; 2% CSE apically plus ivacaftor 10 μM basolaterally, 24 hrs, vs CSE (FIG. 5B)) was “significantly increased”, the PCL depth (HBE cells [1]; ivacaftor 10 μM, as compared to control CF HBE cells (FIG. 4B)) was “increased” and the CBF (HBE cells [1]; ivacaftor 10 μM, as compared to control CF HBE cells (FIG. 4C)) was “increased”. For the same compound, the “overall MCT” value (HBE cells [1]; ivacaftor 10 μM, as compared to control wild-type and control CF cells (FIG. 4D)) was “increased significantly”, the PCL depth (HBE cells [1]; ivacaftor 10 μM, in comparison to control wild-type (FIG. 4B)) was “not increased in a statistically significant manner” and the CBF (HBE cells [1]; ivacaftor 10 μM, in comparison to control wild-type (FIG. 4C)) was “not increased in a statistically significant manner”. The ASL depth (HBE cells [1]; ivacaftor 10 μM, vs control wild-type and control CF HBE cells (FIG. 4A)) was “increased ASL depth significantly above control”, the ASL depth (HBE cells [1]; ivacaftor alone 10 μM basolaterally, 24 hrs, vs control (FIG. 5B)) was “significantly increased” and the MCT (HBE cells [1]; ivacaftor alone 10 μM basolaterally, 24 hrs, vs control (FIG. 5D, FIG. 2D)) was “robust enhancement; also recorded: significantly increased”. The ASL depth (HBE cells [2]) was “enhanced”.
